This data set can be described thus: Extended storage of the L-malic acid salt at rt. The data set is classed as physicochemical. The text has this: NMR (CDCl3 δ from TMS): 0.9-1.0 (m, 6H), 1.0-1.1 (m, 6H), 1.2-1.4 (m, 2H), 1.6-1.95(2 m's, 6H), 2.30 (s, 3H), 2.6-2.9 (2 m's, 4H), 2.92 and 2.94 (2 s, 3H), 3.2-3.4 (m, 2H), 3.52 (br t, 2H, J=8 Hz), 4.5-4.8 (m, 3H), 5.11 (br s, 1H), 7.04 (2 d's, 1H, J=8Hz), 7.13 (br S, 4H).
The material prepared as described above in Example 20, Step A was hydrogenated as described in Example 19, Step B to afford the L-malic acid salt of 2-(S)-[2-[[2-aminoethyl]-ethylamino]-2-oxoethoxy]-3,3-diethyl-N-[1-(R)-(4- methylphenyl)butyl]-4-oxo-1-azetidinecarboxamide as an oil. […] This process could be evaluated by HPLC analysis.

The source of these data is patent US5348953A, “Substituted azetidinones as anti-inflammatory and antidegenerative agents” (Merck & Co., Inc., priority 1992, dated 1994).

Each structure is given as a SMILES string.

On to `CCC[C@@H](NC(=O)N1C(=O)C(CC)(CC)[C@@H]1OCC(=O)N(CC)CCNC)c1ccc(C)cc1` [Example 19, 2-(S)-[2-[[2-Methylaminoethyl]-ethylamino]-2-oxoethoxy]-3,3-diethyl-N-[1-(R)-(4-methylphenyl)butyl]-4-oxo-1-azetidinecarboxamide], for which the stability upon storage entry is recorded as “rearranges to an isomeric equilibrium mixture”.
